Laboratory results: the supplement of paper PMC9938120

Experiments:
Assay in all cases: drug sensitivity score (DSS3, normalised partial AUC of % inhibition dose-response) (DSS (score)); higher = more sensitive (stronger inhibition of viability); extreme values may be limits of the assay
[1] = system: FMOC04 (patient-derived high-grade serous ovarian cancer cells); settings: 72 h; library: FO5A; assay format: 2D, 384-well, CellTiter-Glo
Summary of the method: (§1)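 On 384-well flat clear-bottom plates carrying compounds at five concentrations across a 10,000-fold range, patient-derived ovarian cancer cells below passage 10 were incubated for 72 h at 37 °C with 5% CO2. CellTiter-Glo readout of viability was processed in Breeze. A higher drug sensitivity score, defined as the partial area under the percent-inhibition dose-response curve divided by the log of the upper asymptote, means greater sensitivity.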

[2] = system: FMOC14 (patient-derived high-grade serous ovarian cancer cells); settings: 72 h; library: FO5A; assay format: 2D, 384-well, CellTiter-Glo
Summary of the method: as §1

[3] = system: FMOC24 (patient-derived high-grade serous ovarian cancer cells); settings: 72 h; library: FO5A; assay format: 2D, 384-well, CellTiter-Glo
Summary of the method: as §1

[4] = system: FMOC25_1 (patient-derived low-grade serous ovarian cancer cells); settings: 72 h; library: FO4B; assay format: 2D, 384-well, CellTiter-Glo
Summary of the method: as §1

[5] = system: FMOC28 (patient-derived low-grade serous ovarian cancer cells); settings: 72 h; library: FO5A; assay format: 2D, 384-well, CellTiter-Glo
Summary of the method: as §1

[6] = system: FMOC02_2 (patient-derived low-grade serous ovarian cancer cells); settings: 72 h; library: FO5A; assay format: 2D, 384-well, CellTiter-Glo
Summary of the method: as §1

[7] = system: FMOC06 (patient-derived mucinous ovarian cancer cells); settings: 72 h; library: FO5A; assay format: 2D, 384-well, CellTiter-Glo
Summary of the method: as §1

[8] = system: FMOC25_2 (patient-derived low-grade serous ovarian cancer cells); settings: 72 h; library: FO5A; assay format: 2D, 384-well, CellTiter-Glo
Summary of the method: as §1

[9] = system: FMOC27 (patient-derived low-grade serous ovarian cancer cells); settings: 72 h; library: FO5A; assay format: 2D, 384-well, CellTiter-Glo
Summary of the method: as §1

[10] = system: FMOC02_3 (patient-derived low-grade serous ovarian cancer cells); settings: 72 h; library: FO5A; assay format: 2D, 384-well, CellTiter-Glo
Summary of the method: as §1

[11] = system: FMOC22 (patient-derived mucinous ovarian cancer cells); settings: 72 h; library: FO5A; assay format: 2D, 384-well, CellTiter-Glo
Summary of the method: as §1

[12] = system: FMOC09 (patient-derived high-grade serous ovarian cancer cells); settings: 72 h; library: FO5A; assay format: 2D, 384-well, CellTiter-Glo
Summary of the method: as §1

[13] = system: FMOC02_1 (patient-derived low-grade serous ovarian cancer cells); settings: 72 h; library: FO5A; assay format: 2D, 384-well, CellTiter-Glo
Summary of the method: as §1

[14] = system: FMOC03 (patient-derived mucinous ovarian cancer cells); settings: 72 h; library: FO5A; assay format: 2D, 384-well, CellTiter-Glo
Summary of the method: as §1

[15] = system: FMOC11 (patient-derived high-grade serous ovarian cancer cells); settings: 72 h; library: FO5A; assay format: 2D, 384-well, CellTiter-Glo
Summary of the method: as §1

[16] = system: FMOC17 (patient-derived low-grade serous ovarian cancer cells); settings: 72 h; library: FO5A; assay format: 2D, 384-well, CellTiter-Glo
Summary of the method: as §1

Row | SMILES | drug sensitivity score [1] | drug sensitivity score [2] | drug sensitivity score [3] | drug sensitivity score [4] | drug sensitivity score [5] | drug sensitivity score [6] | drug sensitivity score [7] | drug sensitivity score [8] | drug sensitivity score [9] | drug sensitivity score [10] | drug sensitivity score [11] | drug sensitivity score [12] | drug sensitivity score [13] | drug sensitivity score [14] | drug sensitivity score [15] | drug sensitivity score [16]
1 | CCc1cc2c(cc1N1CCC(N3CCOCC3)CC1)C(C)(C)c1[nH]c3cc(C#N)ccc3c1C2=O [Alectinib] | 0 | 0 | 0.3 | 0.1 | 1.7 | 1.5 | 0.2 | 0 | 1.2 | 0.6 | 0 | 0 | 1.7 | 0.3 | 0.7 | 0.8
2 | Oc1ncnc2[nH]ncc12 [Allopurinol] | 0 | 0 | 0 | 1.3 | 0 | 0 | 0 | 0 | 0 | 0 | 0 | 0 | 0 | 0 | 0 | 0
3 | Cc1nc(NC(=O)N2CCC[C@H]2C(N)=O)sc1-c1ccnc(C(C)(C)C(F)(F)F)c1 [Alpelisib] | 0.9 | 0 | 0.35 | 4.7 | 5.9 | 5.7 | 4.1 | 4.8 | 0.2 | 6.5 | 0.7 | 4.3 | 5.3 | 2.3 | 1.4 | 1.9
4 | CCC1(c2ccc(N)cc2)CCC(=O)NC1=O (stereo unspecified) [Aminoglutethimide] | 0 | 0 | 1.05 | 0.4 | 0 | 0.1 | 0 | 0 | 0 | 0.6 | 0 | 0 | 0 | 0 | 0 | 0.1
5 | S=C(NCc1ccc2c(c1)OCO2)N1CCN(c2ncnc3c2oc2ccccc23)CC1 [Amuvatinib] | 0.3 | 2 | 0 | 0 | 0 | 0 | 0.8 | 0 | 0 | 0 | 2.2 | 0 | 0.4 | 2.6 | 0.7 | 0.3
6 | CC(C)(C#N)c1cc(Cn2cncn2)cc(C(C)(C)C#N)c1 [Anastrozole] | 0 | 0 | 0 | 0 | 0 | 0 | 0 | 0 | 0 | 0 | 0 | 0 | 0 | 0 | 0 | 0
7 | N#CC1(c2ccc(NC(=O)c3cccnc3NCc3ccncc3)cc2)CCCC1 [Apatinib] | 0.6 | 0 | 0.1 | 2.3 | 4.5 | 1.1 | 0 | 1.5 | 0 | 1.5 | 0 | 0 | 0.3 | 0 | 0 | 0
8 | CC(C)c1c(C(=O)Nc2ccccc2)c(-c2ccccc2)c(-c2ccc(F)cc2)n1CC[C@@H](O)C[C@@H](O)CC(=O)O [Atorvastatin] | 0.65 | 3.2 | 6.75 | 0.6 | 5.3 | 1.9 | 1.6 | 3.2 | 0 | 1.5 | 4.5 | 4.9 | 1 | 2.9 | 3.1 | 2.9
9 | CNC(=O)c1ccccc1Sc1ccc2c(/C=C/c3ccccn3)n[nH]c2c1 [Axitinib] | 0.45 | 0 | 2.15 | 0 | 0 | 0.5 | 0 | 0 | 0 | 0.1 | 1.2 | 0 | 1.9 | 2.1 | 0.1 | 0.3
10 | Nc1nc(Nc2ccc3c(c2)CC[C@@H](N2CCCC2)CC3)nn1-c1cc2c(nn1)-c1ccccc1CCC2 [BGB324] | 5.35 | 6.2 | 7.9 | 5.1 | 0.8 | 5 | 3.7 | 2.7 | 0.3 | 7.6 | 1.7 | 0.9 | 7.2 | 2.4 | 4.4 | 3.8
11 | Cc1ccc(NC(=O)c2ccc(CN3CC[C@H](N(C)C)C3)c(C(F)(F)F)c2)cc1Nc1nccc(-c2cncnc2)n1 [Bafetinib] | 0 | 0 | 0 | 0 | 0.1 | 0 | 0 | 0 | 0 | 0.1 | 0 | 0 | 0.2 | 0 | 0 | 0
